Assay results reported in ChEMBL document CHEMBL3868639, “Great Therapeutic Potential of Peptidylarginine Deiminase 4 (PAD4) Inhibitors: Treatment of Rheumatoid Arthritis, Epigenetic Tools, Regulation of Pluripotency in Stem Cells, and More” (ACS Med Chem Lett, 2017).

Biological target: Protein-arginine deiminase type-2 (Homo sapiens, UniProt Q9Y2J8)
Assay: Inhibition of N-terminal 6His/FLAG-tagged recombinant human PAD2 (1 to 665 residues) expressed in baculovirus infected sf9 cells using N-a-benzoyl-L-arginine ethyl ester as substrate preincubated for 30 mins followed by substrate addition after 90 mins by DTT-based fluorescence assay

Sequence of Protein-arginine deiminase type-2 (Q9Y2J8 whole entry, the tested form may be a part): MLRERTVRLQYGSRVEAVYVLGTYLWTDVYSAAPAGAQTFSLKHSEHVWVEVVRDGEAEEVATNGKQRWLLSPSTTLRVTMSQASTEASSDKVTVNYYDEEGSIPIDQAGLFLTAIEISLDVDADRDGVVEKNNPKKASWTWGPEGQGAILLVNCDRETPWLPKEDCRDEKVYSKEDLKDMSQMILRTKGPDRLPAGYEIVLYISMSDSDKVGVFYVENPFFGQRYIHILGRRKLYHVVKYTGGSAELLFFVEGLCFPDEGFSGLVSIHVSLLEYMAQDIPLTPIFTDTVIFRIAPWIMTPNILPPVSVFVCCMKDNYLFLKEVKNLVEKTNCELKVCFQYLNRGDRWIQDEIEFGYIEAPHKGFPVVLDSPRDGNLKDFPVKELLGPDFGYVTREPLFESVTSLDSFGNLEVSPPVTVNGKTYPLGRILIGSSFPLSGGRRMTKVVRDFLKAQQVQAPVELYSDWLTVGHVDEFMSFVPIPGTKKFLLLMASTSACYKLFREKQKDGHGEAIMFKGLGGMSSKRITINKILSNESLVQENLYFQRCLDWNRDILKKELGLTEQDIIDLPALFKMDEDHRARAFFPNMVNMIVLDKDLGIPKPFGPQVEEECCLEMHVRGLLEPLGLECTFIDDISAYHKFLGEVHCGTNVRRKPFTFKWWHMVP

| IC50 [µM] | Compound |
| --- | --- |
| 10 to 79.4 | Cn1c(-c2cc3ccccc3n2CC2CC2)nc2cc(C(=O)N3CCC[C@@H](N)C3)ccc21 |
| 10 to 79.4 | COc1cc(C(=O)N2CC[C@@H](O)[C@@H](N)C2)cc2nc(-c3cc4ccccc4n3CC(F)(F)F)n(C)c12 |
| 10 to 79.4 | COc1cc(C(=O)N2CCC[C@@H](N)C2)cc2nc(-c3cc4ccccc4n3CC(F)(F)F)n(C)c12 |
| 10 to 79.4 | COc1cc(C(=O)N2CCC[C@@H](N)C2)cc2nc(-c3cc4ccccc4n3CC3CC3)n(C)c12 |
